Test results published in PMC6608960 (PLoS ONE, 2019).
Where a SMILES comes first, the peptide text is derived from it.

Key:
Wistar rats = assay: Urine, sodium and potassium outflow after iv injection in rats (metabolic cages, 5 h); assay type: in vivo; settings: Wistar rat
Procedure: Experiments were performed using 8-week-old Wistar rats (225-250g) purchased from Charles River laboratories (St. Constant, QC, CA). Rats were housed in a standard temperature and light condition with access to water and irradiated standard rodent diet (Harlan Laboratories Inc., IN, USA) ad libitum. At the end of experiments, rats were anaesthetized with sodium pentobarbital (5mg/100 g body wt. i.p.; 20 𝜇mol/100 g body wt.) and blood samples (2mL, EDTA) were collected. Rats were euthanized by cervical decapitation.
Peptides were dissolved at the desired concentration in 0.3 mL of the vehicle and administered as a single bolus in the tail vein.
Both antagonists (OTA, V2A) were administered to rats at the concentration of 10 μmol/kg under normal conditions (0.3 mL iv injection) and with blood volume expansion (5 mL iv injection). Rats (n = 24 per condition) received combination treatment in random order separated by a 2–3 day interval. For both series of experiments, rats were placed in metabolic cages for a period of 5 hours to collect urine for the determination of sodium and potassium levels. Metabolic cages were kept in a bright and quiet room and rats were deprived of food and water during this period.
The concentrations of excreted sodium and potassium were determined by flame spectrometry (iCE 3000 series AA spectrometer; Thermo Fisher Scientific, Cambridge, UK).

[1] = biological target: T1, V2 receptor (AVP-R2) overexpressed in CHO-K1 cells (Homo sapiens, UniProt P30518); assay: Intracellular cAMP release in AVP-R2 CHO-K1 cells (cAMP Hunter eXpress); assay type: cell-based; settings: peptide alone, 30 min at 37°C, chemiluminescent read-out
T1 construct: host or cells: CHO-K1
Procedure: Changes in intracellular cAMP level in response to agonist stimulation of the GPCR receptor was detected with a chemiluminescent cAMP Hunter eXpress Cat.No: # 95-0150E2CP2M kit from DiscoveRx (www.discoverx.com). A standard curve of cAMP (in duplicate) was included in the same plate and used to report data in nM cAMP. […] The values of cAMP were presented as relative light units (RLU) or they were calculated in nM from the standard curve.

T1 sequence (P30518 whole entry): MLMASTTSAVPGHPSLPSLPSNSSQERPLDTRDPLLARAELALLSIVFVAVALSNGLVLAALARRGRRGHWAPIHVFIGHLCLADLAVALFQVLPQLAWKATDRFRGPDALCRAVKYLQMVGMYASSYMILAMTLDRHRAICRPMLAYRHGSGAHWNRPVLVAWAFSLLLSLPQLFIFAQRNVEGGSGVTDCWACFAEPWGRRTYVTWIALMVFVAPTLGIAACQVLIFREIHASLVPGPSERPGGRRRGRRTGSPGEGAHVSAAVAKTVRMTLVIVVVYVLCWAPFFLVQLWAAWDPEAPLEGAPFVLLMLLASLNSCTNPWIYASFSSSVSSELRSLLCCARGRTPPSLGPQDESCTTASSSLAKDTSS

[d(CH2)5, Tyr(Me)2, Thr4, Orn8, Tyr-NH29]-vasotocin [OTA]
effect of antagonist on OT-stimulated diuresis (Wistar rats; OTA co-administered with OT, normal volume and blood volume expansion (5 mL)): inhibited OT-stimulated diuresis to control and BVE levels

[d(CH2)5, D-Ile2, Ile4, Tyr-NH29]-AVP [V2A]
effect of antagonist alone on diuresis (Wistar rats; V2A alone iv, normal volume and blood volume expansion): significant diuresis

CC[C@H](C)[C@@H]1NC(=O)[C@H](Cc2ccc(O)cc2)NC(=O)[C@@H](N)CSSC[C@@H](C(=O)N2CCC[C@H]2C(=O)N[C@@H](CC(C)C)C(=O)NCC(=O)NCC(=O)N[C@@H](CCCCN)C(=O)N[C@@H](CCCNC(=N)N)C(=O)O)NC(=O)[C@H](CC(N)=O)NC(=O)[C@H](CCC(N)=O)NC1=O [OT-GKR] (HELM PEPTIDE1{C.Y.I.Q.N.C.P.L.G.G.K.R}$PEPTIDE1,PEPTIDE1,1:R3-6:R3$$$V2.0)
EC50 [1]: 1.1 µM
